IC50 and selectivity ratio data for 15 compounds are collected here from ChEMBL document CHEMBL6103643, “Total Synthesis of (-)- and (+)-Talaroenamine B and Diphenylene Derivatives” (J Nat Prod, 2025).

The test system of one data set is ASPC1. The data set is described as follows: Cytotoxicity against human ASPC1 cells assessed as inhibition of cell growth by SRB assay. It counts as functional, cell-based. For orientation: Sulforhodamine B stains cellular protein and so reports cell mass.
For a further data set, the target named is Acetylcholinesterase (Homo sapiens, UniProt P22303). Kind of data set: Inhibition of AChE (unknown origin) by Ellman's method. In general terms: In Ellman's method for cholinesterases, released thiocholine reacts with DTNB.
The test system of a further data set is K562. Kind of data set: Cytotoxicity against human K562 cells assessed as inhibition of cell growth by MTT assay. It counts as functional, cell-based. In general terms: Tetrazolium dyes change colour on reduction, which living cells bring about.
A further data set has as its system NCI-H446. The data set is described as follows: Cytotoxicity against human NCI-H446 cells assessed as inhibition of cell growth by SRB assay. It counts as functional, cell-based.
A short description of data set [1]: Cytotoxicity against human L02 cells assessed as inhibition of cell growth by SRB assay. Format: toxicity, cell-based.
The nature of data set [2]: Cytotoxicity against human Cisplatin/etoposide-resistant NCI-H446/EP cells assessed as inhibition of cell growth by SRB assay. Format: functional, cell-based.
Data set [3] in a line: Selectivity index, ratio of IC50 for cytotoxicity against human L02 cells to IC50 for cytotoxicity against human K562 cells. It counts as toxicity, cell-based. The note with it: L02 cells and K562 cells, read-out: Ratio IC50.

Counter-ions that a name gives are not always drawn. Where only a bound is given, the exact number is not on record here.

Chain of Acetylcholinesterase (P22303 whole entry): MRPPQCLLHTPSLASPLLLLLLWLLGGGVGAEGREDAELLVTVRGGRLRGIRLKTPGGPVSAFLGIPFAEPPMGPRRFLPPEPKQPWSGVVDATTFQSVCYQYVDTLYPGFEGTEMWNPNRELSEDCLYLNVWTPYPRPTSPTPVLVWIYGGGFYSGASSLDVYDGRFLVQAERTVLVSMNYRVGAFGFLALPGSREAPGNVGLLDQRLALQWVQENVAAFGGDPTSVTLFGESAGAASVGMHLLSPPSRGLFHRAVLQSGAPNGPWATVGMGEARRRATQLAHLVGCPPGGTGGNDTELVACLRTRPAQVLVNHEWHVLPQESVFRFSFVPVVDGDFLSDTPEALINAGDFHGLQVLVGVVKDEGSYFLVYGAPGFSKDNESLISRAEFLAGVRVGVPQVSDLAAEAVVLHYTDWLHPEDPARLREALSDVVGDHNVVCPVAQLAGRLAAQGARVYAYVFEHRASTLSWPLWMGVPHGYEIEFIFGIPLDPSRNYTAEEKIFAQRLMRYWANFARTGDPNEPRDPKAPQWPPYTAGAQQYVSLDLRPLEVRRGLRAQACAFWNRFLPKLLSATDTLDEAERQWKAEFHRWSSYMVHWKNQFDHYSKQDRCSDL

For `CC1=CC(=O)[C@@](C)(O)C(=O)/C1=C\Nc1ccc(Cc2ccccc2)cc1`, the IC50 (as a rule, the concentration at which inhibition is half-maximal) was over 30 µM with ASPC1; over 100 µM at Acetylcholinesterase; over 30 µM with K562; over 30 µM in the data set with NCI-H446; over 30 µM in data set [1]; over 30 µM in data set [2].
With `CC1=CC(=O)[C@](C)(O)C(=O)/C1=C\Nc1ccc(Oc2cccc(F)c2)cc1`, in data set [3], the selectivity ratio was over 1.9. The IC50 was over 30 µM in the data set on ASPC1; over 100 µM at Acetylcholinesterase; 15.5 µM in the data set with K562; over 30 µM in the data set on NCI-H446; over 30 µM in data set [1]; over 30 µM in data set [2].
Turning to `CC1=CC(=O)[C@@](C)(O)C(=O)/C1=C\Nc1ccc(Oc2ccc(Cl)cc2)cc1`, the concentration for half-maximal inhibition (IC50) in the data set with ASPC1 is over 30 µM; at Acetylcholinesterase it was over 100 µM; in the data set with K562, over 30 µM; in the data set with NCI-H446 it was over 30 µM; in data set [1], over 30 µM; in data set [2], over 30 µM.
Regarding `CC1=CC(=O)[C@@](C)(O)C(=O)/C1=C\Nc1ccc(Oc2ccc(C#N)cc2)cc1`, the IC50 with ASPC1 was over 30 µM; against Acetylcholinesterase, 4.7 µM; with K562, over 30 µM; in the data set on NCI-H446, over 30 µM; in data set [1], over 30 µM; in data set [2], over 30 µM.
`CC1=CC(=O)[C@](C)(O)C(=O)/C1=C\Nc1ccc(Oc2ccc(C#N)cc2)cc1`: the IC50 is over 30 µM with ASPC1; 24.4 µM against Acetylcholinesterase; over 30 µM in the data set with K562; over 30 µM with NCI-H446; over 30 µM in data set [1]; over 30 µM in data set [2].
`CC1=CC(=O)[C@](C)(O)C(=O)/C1=C\Nc1ccc(Oc2ccc([N+](=O)[O-])cc2)cc1`: the half-maximal inhibitory concentration (IC50) is over 30 µM in the data set on ASPC1; 68.1 µM against Acetylcholinesterase; over 30 µM in the data set with K562; over 30 µM in the data set on NCI-H446; over 30 µM in data set [1]; over 30 µM in data set [2].
Consider `CC1=CC(=O)[C@@](C)(O)C(=O)/C1=C\Nc1ccc(Oc2cccc(F)c2)cc1`, for which the IC50 in the data set with ASPC1 was over 30 µM; on Acetylcholinesterase, over 100 µM; with K562, over 30 µM; in the data set on NCI-H446 it was over 30 µM; in data set [1] it was over 30 µM; in data set [2], over 30 µM.
As for `CC1=CC(=O)[C@@](C)(O)C(=O)/C1=C\Nc1ccc(Oc2ccc(C)cc2)cc1`, the IC50 with ASPC1 is over 30 µM; at Acetylcholinesterase, over 100 µM; in the data set on K562 it was over 30 µM; in the data set with NCI-H446, over 30 µM; in data set [1], over 30 µM; in data set [2], over 30 µM.
For the compound `CC1=CC(=O)[C@](C)(O)C(=O)/C1=C\Nc1ccc(Oc2ccc(Cl)cc2)cc1`, the selectivity ratio in data set [3] was 1.7. Besides, the IC50 in the data set with ASPC1 is over 30 µM; at Acetylcholinesterase, over 100 µM; in the data set with K562 it was 9.5 µM; in the data set with NCI-H446, over 30 µM; in data set [1] it was 17 µM; in data set [2], over 30 µM.
With `COc1cccc2c1C(=O)c1c(O)c3c(c(O)c1C2=O)C[C@@](O)(C(=O)CO)C[C@@H]3O[C@H]1C[C@H](N)[C@H](O)[C@H](C)O1` [DOXORUBICIN HYDROCHLORIDE], the values for the IC50 (in the data set with ASPC1; with NCI-H446; in data set [2]) were 15.1 µM, 0.3 µM and 0.2 µM, respectively.
As to `CC1=CC(=O)[C@@](C)(O)C(=O)/C1=C\Nc1ccc(Oc2ccc([N+](=O)[O-])cc2)cc1`, the IC50 is over 30 µM in the data set with ASPC1; over 100 µM against Acetylcholinesterase; over 30 µM in the data set with K562; over 30 µM with NCI-H446; over 30 µM in data set [1]; over 30 µM in data set [2].
For the compound `CC1=CC(=O)[C@](C)(O)C(=O)/C1=C\Nc1ccc(Oc2ccc(C)cc2)cc1`, the IC50 with ASPC1 was over 30 µM; on Acetylcholinesterase it was over 100 µM; with K562, over 30 µM; in the data set with NCI-H446 it was over 30 µM; in data set [1] it was 19.8 µM; in data set [2], over 30 µM.
With `CC1=CC(=O)[C@](C)(O)C(=O)/C1=C\Nc1ccccc1`, the IC50 with ASPC1 is over 30 µM; against Acetylcholinesterase, over 100 µM; in the data set on K562 it was over 30 µM; with NCI-H446 it was over 30 µM; in data set [1], over 30 µM; in data set [2], over 30 µM.
On to `CC1=CC(=O)[C@](C)(O)C(=O)/C1=C\Nc1ccc(Cc2ccccc2)cc1`, for which, in data set [3], the selectivity ratio is 3.3. Moreover, the IC50 in the data set with ASPC1 is over 30 µM; on Acetylcholinesterase, 4.5 µM; in the data set on K562, 5.6 µM; with NCI-H446, over 30 µM; in data set [1] it was 18.6 µM; in data set [2] it was over 30 µM.
As to `CC1=CC(=O)[C@@](C)(O)C(=O)/C1=C\Nc1ccccc1`, the 50% inhibitory concentration (IC50) in the data set on ASPC1 was over 30 µM; on Acetylcholinesterase it was over 100 µM; in the data set with K562, over 30 µM; in the data set with NCI-H446 it was over 30 µM; in data set [1], over 30 µM; in data set [2], over 30 µM.
